Measured values reported in US4359531A, “Production of isomaltulose” (Talres Development (N.A.) N.V., priority 1979, dated 1982).

Tested on: isomaltulose-synthesising activity of the immobilized cells
Experiment: Effect of chloramphenicol in the sucrose substrate on immobilized cells
Assay type: cell-based, Erwinia rhapontici
Conditions: 0.1 g/l in 55% (w/v) sucrose
Source text: This hypothesis was confirmed when 0.1 g/l of chloramphenicol, which inhibits protein synthesis, was included in the 55% (w/v) sucrose used as substrate.

For `O=C(N[C@H](CO)[C@H](O)c1ccc([N+](=O)[O-])cc1)C(Cl)Cl` [chloramphenicol], the “isomaltulose-synthesising activity in presence of chloramphenicol” value was “unaffected” and the “cell division in presence of chloramphenicol” value (even when nutrients supplied) was “no cell division took place”.
